In US20260217701A1, “SELECTIVE BET INHIBITORS AND USES THEREOF” (Tay Therapeutics Limited, priority 2022, published 2026):

Tested on: imiquimod-induced psoriasis
Assay: Imiquimod-induced psoriasis model
Assay type: in vivo, mice
Conditions: for Mean scores of the presence of erythema on the skin of animals at the area of induction of psoriasis / Mean scores of the presence of induration on the skin of animals at the area of induction of psoriasis / Mean scores of the presence of peeling on the skin of animals at the area of induction of psoriasis: mean ± SEM; for Mean PASI Scores in IMI-Psoriasis Model: mice
Summary of the method: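 Psoriasis-like dermatitis induced in mice by daily dorsal imiquimod cream (Days 1–14); dosing with Compound A (5% DMSO/40% PEG-400/55% saline vehicle) began Day 8. Read-outs: summed 0–4 scores for erythema, induration and peeling daily to Day 15, plus terminal spleen ratio, behaviour and serum cytokines.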

[1] = IMI + 10 mg/kg, D8 (before start of treatment)

SMILES: Cn1cc(-c2ccccc2)c(-c2cn(C)c(=O)c3[nH]c(-c4cnn(C(F)(F)F)c4)cc23)cc1=O [Compound A, 6-methyl-4-(1-methyl-2-oxo-5-phenyl-1,2-dihydropyridin-4-yl)-2-(1-(trifluoromethyl)-1H-pyrazol-4-yl)-1,6-dihydro-7H-pyrrolo[2,3-c]pyridin-7-one]
- Mean scores of the presence of erythema on the skin of animals at the area of induction of psoriasis (IMI + 3 mg/kg, D15): 0.0 ± 0.0
- Mean scores of the presence of induration on the skin of animals at the area of induction of psoriasis (IMI + 3 mg/kg, D15): 0.1 ± 0.1
- Mean scores of the presence of peeling on the skin of animals at the area of induction of psoriasis (IMI + 3 mg/kg, D15): 0.3 ± 0.2
- Mean scores of the presence of erythema on the skin of animals at the area of induction of psoriasis [1]: 2.3 ± 0.2
- Mean scores of the presence of induration on the skin of animals at the area of induction of psoriasis [1]: 2.6 ± 0.2
- Mean scores of the presence of peeling on the skin of animals at the area of induction of psoriasis [1]: 2.3 ± 0.3
- Mean scores of the presence of erythema on the skin of animals at the area of induction of psoriasis (IMI + 10 mg/kg, D9): 1.2 ± 0.2
- Mean scores of the presence of induration on the skin of animals at the area of induction of psoriasis (IMI + 10 mg/kg, D9): 2.0 ± 0.3
- Mean scores of the presence of peeling on the skin of animals at the area of induction of psoriasis (IMI + 10 mg/kg, D9): 2.0 ± 0.3
- Mean scores of the presence of erythema on the skin of animals at the area of induction of psoriasis (IMI + 10 mg/kg, D10): 1.0 ± 0.2
- Mean scores of the presence of induration on the skin of animals at the area of induction of psoriasis (IMI + 10 mg/kg, D10): 1.8 ± 0.2
- Mean scores of the presence of peeling on the skin of animals at the area of induction of psoriasis (IMI + 10 mg/kg, D10): 1.5 ± 0.2
- Mean scores of the presence of erythema on the skin of animals at the area of induction of psoriasis (IMI + 10 mg/kg, D11): 1.3 ± 0.2
- Mean scores of the presence of induration on the skin of animals at the area of induction of psoriasis (IMI + 10 mg/kg, D11): 1.6 ± 0.2
- Mean scores of the presence of peeling on the skin of animals at the area of induction of psoriasis (IMI + 10 mg/kg, D11): 1.5 ± 0.2
- Mean scores of the presence of erythema on the skin of animals at the area of induction of psoriasis (IMI + 10 mg/kg, D12): 0.5 ± 0.2
- Mean scores of the presence of induration on the skin of animals at the area of induction of psoriasis (IMI + 10 mg/kg, D12): 1.1 ± 0.2
- Mean scores of the presence of peeling on the skin of animals at the area of induction of psoriasis (IMI + 10 mg/kg, D12): 1.3 ± 0.2
- Mean scores of the presence of erythema on the skin of animals at the area of induction of psoriasis (IMI + 10 mg/kg, D13): 0.1 ± 0.1
- Mean scores of the presence of induration on the skin of animals at the area of induction of psoriasis (IMI + 10 mg/kg, D13): 0.8 ± 0.2
- Mean scores of the presence of peeling on the skin of animals at the area of induction of psoriasis (IMI + 10 mg/kg, D13): 0.6 ± 0.2
- Mean scores of the presence of erythema on the skin of animals at the area of induction of psoriasis (IMI + 10 mg/kg, D14): 0.0 ± 0.0
- Mean scores of the presence of induration on the skin of animals at the area of induction of psoriasis (IMI + 10 mg/kg, D14): 0.4 ± 0.2
- Mean scores of the presence of peeling on the skin of animals at the area of induction of psoriasis (IMI + 10 mg/kg, D14): 0.3 ± 0.2
- Mean scores of the presence of erythema on the skin of animals at the area of induction of psoriasis (IMI + 10 mg/kg, D15): 0.0 ± 0.0
- Mean scores of the presence of induration on the skin of animals at the area of induction of psoriasis (IMI + 10 mg/kg, D15): 0.1 ± 0.1
- Mean scores of the presence of peeling on the skin of animals at the area of induction of psoriasis (IMI + 10 mg/kg, D15): 0.3 ± 0.2
- Mean PASI Scores in IMI-Psoriasis Model (IMI + 1 mg/kg, D8 (before start of treatment)): 7.3 ± 0.3
- Mean PASI Scores in IMI-Psoriasis Model (IMI + 1 mg/kg, D9): 7.0 ± 0.4
- Mean PASI Scores in IMI-Psoriasis Model (IMI + 1 mg/kg, D10): 6.0 ± 0.4
- Mean PASI Scores in IMI-Psoriasis Model (IMI + 1 mg/kg, D11): 5.8 ± 0.5
- Mean PASI Scores in IMI-Psoriasis Model (IMI + 1 mg/kg, D12): 4.4 ± 0.3
- Mean PASI Scores in IMI-Psoriasis Model (IMI + 1 mg/kg, D13): 3.1 ± 0.4
- Mean PASI Scores in IMI-Psoriasis Model (IMI + 1 mg/kg, D14): 2.1 ± 0.3
- Mean PASI Scores in IMI-Psoriasis Model (IMI + 1 mg/kg, D15): 1.1 ± 0.2
- Mean PASI Scores in IMI-Psoriasis Model (IMI + 3 mg/kg, D8 (before start of treatment)): 6.9 ± 0.4
- Mean PASI Scores in IMI-Psoriasis Model (IMI + 3 mg/kg, D9): 6.8 ± 0.4
- Mean PASI Scores in IMI-Psoriasis Model (IMI + 3 mg/kg, D10): 5.5 ± 0.3
- Mean PASI Scores in IMI-Psoriasis Model (IMI + 3 mg/kg, D11): 4.0 ± 0.3
- Mean PASI Scores in IMI-Psoriasis Model (IMI + 3 mg/kg, D12): 3.5 ± 0.4
- Mean PASI Scores in IMI-Psoriasis Model (IMI + 3 mg/kg, D13): 1.8 ± 0.3
- Mean PASI Scores in IMI-Psoriasis Model (IMI + 3 mg/kg, D14): 0.8 ± 0.3
- Mean PASI Scores in IMI-Psoriasis Model (IMI + 3 mg/kg, D15): 0.4 ± 0.2
- Mean PASI Scores in IMI-Psoriasis Model [1]: 7.1 ± 0.4
- Mean PASI Scores in IMI-Psoriasis Model (IMI + 10 mg/kg, D9): 5.3 ± 0.6
- Mean PASI Scores in IMI-Psoriasis Model (IMI + 10 mg/kg, D10): 4.3 ± 0.5
- Mean PASI Scores in IMI-Psoriasis Model (IMI + 10 mg/kg, D11): 4.4 ± 0.4
- Mean PASI Scores in IMI-Psoriasis Model (IMI + 10 mg/kg, D12): 2.9 ± 0.5
- Mean PASI Scores in IMI-Psoriasis Model (IMI + 10 mg/kg, D13): 1.5 ± 0.2
- Mean PASI Scores in IMI-Psoriasis Model (IMI + 10 mg/kg, D14): 0.6 ± 0.2
- Mean PASI Scores in IMI-Psoriasis Model (IMI + 10 mg/kg, D15): 0.4 ± 0.2
- body weight change over the last 7 days (mouse, in vivo): weight gains
- erythema, induration and peeling of the skin at the area of induction (mouse, in vivo): significantly reduced
- use of enrichment (nesting) (relative to vehicle-treated psoriasis animals): restored the use of enrichment
- IL-17 level, lower than vehicle (placebo) treated animals (serum, day 15): > 93%
